Test results: the METLIN SMRT retention time set (Domingo-Almenara et al. 2019)

Test: gradient 5% acetonitrile 3 min, to 50% in 2 min, to 85% in 15 min, held 3 min, 100 µL/min
Conditions: column: Zorbax Extend-C18 2.1 x 50 mm; eluents: water / acetonitrile, 0.1% formic acid
In short: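 Standards, all pure, were combined into mixtures of ~100 molecules and run at 100 μL/min on a Zorbax Extend-C18 column (2.1 × 50 mm, 1.8 μm) with water and acetonitrile, each containing 0.1% formic acid. A coupled quadrupole time-of-flight mass spectrometer operated in positive and negative ionization mode. Retention time values come from computationally picked adduct peaks, each inspected manually.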

RP-LC retention time [s] | SMILES
673 | COc1cccc(CNC(=O)Nc2c(-c3cccc(C)c3)nc3ccccn23)c1
712 | CCc1ccccc1NC(=O)Nc1ccc2nnc(C)n2c1
588 | COc1ccc(C)cc1NC(=O)CNC(=O)c1ccc(=O)[nH]c1
814 | Cc1ccc(NC(=O)Cc2ccc(S(C)(=O)=O)cc2)c(C(=O)c2ccccc2)c1
825 | O=C(Cn1cccc1-c1nnc(C2CC2)o1)NCc1ccc(Cl)cc1
669 | CN(C1=NC(=O)/C(=C/c2cc(Cl)ccc2OCC(=O)O)S1)c1ccc(O)cc1
721 | CC1(C)CC(=O)C2=C(C1)Nc1ccccc1N(CC(=O)N1CCOCC1)C2c1cccs1 (stereo not drawn)
600 | Cc1ccc(C(=O)N2CC(Cn3c(C)cnc3C3CCOCC3)C2)s1
1410 | COc1ccccc1N1CCN(S(=O)(=O)c2cc(-c3nc(C(C)C)cs3)sc2C)CC1
753 | CCn1ccc2c(cc(C(=O)Nc3ccc(C)cc3C)n2C)c1=O
846 | Cc1ccccc1CNC(=O)C1(C)CCCN(C(=O)Nc2ccc3c(c2)OCCO3)C1 (stereo not drawn)
594 | NC(=O)C1CCN(C(=O)Cc2cc(-c3cccs3)on2)CC1
1430 | COc1ccc(-c2nc(-c3ccc4oc(-c5ccccc5)nc4c3)no2)cn1
556 | O=C(Cc1cccs1)NCCCN1CCOC(c2ccccc2)C1 (stereo not drawn)
1030 | COc1cccc(-c2nc(Cc3nc(-c4ccccc4OC)oc3C)no2)c1
691 | COc1ccc(-n2nnc(C(=O)O)c2-c2ccccc2)cc1OC
878 | CC1(C)N=C(N)N=C(N)N1c1ccc(CCCCc2ccc(Cl)cc2Cl)cc1
911 | Cn1c(=O)sc2cc(S(=O)(=O)N3CCC(C(=O)NCCC4=CCCCC4)CC3)ccc21
578 | Cc1ccc(NC(=O)N2CCc3nc[nH]c3C2)c(C)c1
891 | CCOC(=O)c1c(S(=O)(=O)N2CCC(C(=O)Nc3ccccc3OC)CC2)c(C)n(CC)c1C
631 | CC(C)(C)Cn1c(N)nc2ccc(-c3[nH]c(C(C)(C)C)nc3-c3ccc(F)cc3)nc21
595 | CCN(CC)CCCC(C)Nc1nc(/C=C/c2cc(OC)c(OC)cc2Cl)nc2cc(Cl)ccc12 (stereo not drawn)

RP-LC retention time [s] | SMILES
882 | CN(CCc1noc(-c2ccc(F)cc2)n1)C(=O)Nc1ccccc1F
609 | Cc1ccc(-c2nc(-c3ccc4c(c3)oc(=O)n4C)no2)cc1F
1240 | CCc1ccc(NS(=O)(=O)c2c(C)sc(C)c2-c2cc(C(F)(F)F)on2)cc1
847 | COc1ccc(CCN2C(=O)C(NC(=O)C3CC3)(C(F)(F)F)C3=C2CC(C)(C)CC3=O)cc1OC (stereo not drawn)
894 | CCOc1ccccc1-c1nc(Cc2noc(-c3cccnc3)n2)c(C)o1
763 | Cc1ccc(-c2nc3ccc(C)cn3c2NC(=O)c2ccc(Cl)cc2)cc1
999 | Cc1cccc(OCc2nc(-c3cccc(-c4ccn[nH]4)c3)no2)c1
691 | O=C(NCc1ccc2c(c1)OCO2)c1nc(-c2ccnc(N3CCCCC3)c2)no1
942 | CCn1c(=O)c(C)nc2cc(-c3noc(-c4ccc(OC)cc4)n3)ccc21
917 | COc1ccc(-c2csc(NC(=O)CCn3c(=O)sc4ccccc43)n2)cc1OC
872 | CC(C)CNC(=O)C1CCCN(c2nccn3nc(-c4ccccc4Cl)cc23)C1 (stereo not drawn)
819 | CN(CC(=O)O)S(=O)(=O)c1ccc(Cl)c(-c2nnc(-c3ccccc3)o2)c1
630 | Cn1c(=O)n(C)c2cc(CNc3ccc4c(c3)OCO4)ccc21
862 | O=C(NC1CC1)c1ccc(OCC2CCCN(C(=O)c3ccc(F)c(Cl)c3)C2)cc1 (stereo not drawn)
565 | O=C(c1ccco1)N1CCCN(C2CCN(Cc3ccc(F)cc3)C2=O)CC1 (stereo not drawn)
714 | CS(=O)(=O)Nc1cccc(NC(=O)CCc2c[nH]c3ccccc23)c1
703 | Cc1cc2nn(CC(=O)Nc3ccccc3)c(=O)n2c(N2CCCC2)n1
1110 | COc1c(C(=O)NC(C)(C)C)sc2cccc(F)c12
689 | O=C(Nc1cc(F)ccc1F)N1CCCC(Cn2c(C3CC3)nc3cccnc32)C1 (stereo not drawn)
748 | Cc1ccc(-c2ncn(C3CCCCC3)c2-c2ccc(C(=O)N3CCN(c4ncccn4)CC3)o2)cc1
664 | Cn1cc(CN2CCN(C(=O)c3cc(-c4cccs4)[nH]n3)CC2)c2ccccc21
1200 | Cc1cccc(CNC(=O)c2cc3c(-c4cccs4)nn(-c4ccccc4)c3n2C)c1

RP-LC retention time [s] | SMILES
1090 | COc1ccc(CNC(=O)CSc2cc(N3CCN(c4ccccc4OC)CC3)ncn2)cc1
1210 | Cc1cc(C)cc(Oc2nccn3c(=O)n(CC(=O)NCc4ccco4)nc23)c1
1360 | Cc1oc(-c2cccc(Cl)c2)nc1Cn1c(=O)n(C(C)C)c(=O)c2ccccc21
1090 | O=C(NCc1ccc(Br)cc1)c1sc2ncccc2c1-n1cccc1
1030 | COc1ccc(C2CC(=O)N(c3ccc(C(C)C)cc3)C(=O)C2)cc1
778 | CCc1cc(C(=O)NCc2ccc(C)o2)nc2cc(-c3ccccn3)nn12
1120 | O=C(Nc1nc(-c2ccc3c(c2)OCCO3)cs1)c1cc(Cl)sc1Cl
1090 | Cc1ccc2c(c1)N(C(=O)Cn1ccc3ccn(Cc4ccccc4C)c3c1=O)CCO2
678 | CCN1CCCn2nc(C3CCN(C(=O)COc4ccccc4)CC3)cc2C1=O
1070 | O=C(CSc1ncc(-c2cccc(Cl)c2)o1)Nc1ccccc1C(F)(F)F
890 | O=C(Cc1cccn1-c1cccc(Cl)c1)NCc1ccc(N2CCOCC2)cc1
869 | Cc1ccc(-c2cc(NC(=O)C3CC3)on2)s1
896 | Cc1ccc(CNC(=O)Cc2csc3nc(-c4ccc(C)c(C)c4)cn23)cc1
645 | O=C(NCCn1c(-c2ccncc2)nc2cccnc21)Nc1cccc(Cl)c1
1110 | Fc1ccc(C2Cn3nnc(-c4nc(-c5ccccc5F)no4)c3CO2)cc1 (stereo not drawn)
981 | O=C(Nc1nc(-c2ccc(Cl)cc2Cl)cs1)c1ccno1
1150 | CCOc1ccc(-c2ccc(=O)n(Cc3nc(-c4cccc(OCC)c4)no3)n2)cc1
931 | CCOc1ccc(CC(=O)Nc2ccc3c(c2)Sc2ncccc2C(=O)N3C)cc1
797 | O=C(NCCc1csc(-c2cccs2)n1)C1CCN(C(=O)Cc2cccc(F)c2)CC1
596 | NC(=O)c1nsc2c(=O)n(CC(=O)NC3CCCC3)cnc12
591 | Cc1noc(C)c1CC(=O)N1CCc2c(c(-c3nncn3C)nn2C)C1
778 | O=C(CCc1c[nH]c2ccccc12)N1CCn2cnnc2C1

RP-LC retention time [s] | SMILES
591 | Cc1nc(C)c(C(=O)N2CCCC(n3c(C)cnc3C3CCC3)C2)s1 (stereo not drawn)
905 | CCn1c(=O)sc2cc(S(=O)(=O)N3CCC(C(=O)NCc4ccccc4Cl)CC3)ccc21
818 | Clc1ccc(-c2nc3ncccn3c2Nc2ccccc2)cc1
646 | CC(C)CNC(=O)c1cn(-c2cc(-c3nc(C4CC4)no3)ccn2)cn1
628 | COc1ccc(N2CCN(C(=O)C3(CCO)CC34CCOCC4)CC2)cc1 (stereo not drawn)
759 | Cc1cc(=O)n(CC(=O)Nc2ccc(C(F)(F)F)cc2)c(N2CCOCC2)n1
981 | CCOC(=O)c1ccc(NC(=O)c2cc3c(=O)n(C)c4ccccc4n3n2)cc1
719 | CN(C)C(=O)c1ccc2c(c1)nnn2CCNC(=O)Nc1cc(Cl)ccc1Cl
704 | CCCNc1cc(N2CCC(CCC(=O)NCc3cc(F)cc(F)c3)CC2)ncn1
679 | CCOc1ccc(CC(=O)NC2CCN(c3cc(-c4ccc(F)cc4)[nH]n3)C2)cc1OCC (stereo not drawn)
561 | CC(C)CCN1C[C@@H]2C(=O)N(CCN3CCc4ccccc4C3)C(=O)[C@@H]2C1
759 | CNC(=O)[C@H]1C[C@H](Oc2ccccc2)CN1C(=O)CCc1nc2ccccc2s1
906 | CCc1nnc2ccc(-c3noc(-c4ccccc4)n3)cn12
640 | Cc1ccc2c(Nc3ccc(O)cc3)c(C(=O)OC(C)C)cnc2n1
820 | Cc1c(C(=O)C(=O)NCc2ccc3c(c2)OCO3)c2ccccc2n1C
764 | CC1(C(=O)NCc2ccc(F)cc2)CN(S(C)(=O)=O)CC(=O)N1c1cccc(F)c1 (stereo not drawn)
653 | O=C([C@H]1C[C@@H](F)CN1C(=O)Nc1cccc(Cl)c1)N1CCOCC1
768 | CC1CCN(S(=O)(=O)c2ccc3c(c2)CCCC(=O)N3CC(=O)N2CCOCC2)CC1
567 | O=C(Cn1nc(Cc2ccncc2)c2ccccc2c1=O)NCCCN1CCc2ccccc2C1
652 | CCC(=O)N1CCc2cc(N3CC(C(=O)NCC4CC4)CC3=O)ccc21 (stereo not drawn)
710 | COc1ccc(C(=O)Nc2ccc3c(c2)Sc2ncccc2C(=O)N3C)cn1
865 | Cc1noc(-c2ccc(-n3cnc(C(=O)NCc4ccc(Cl)cc4)c3)nc2)n1
